Converted amounts (≈) assume the structure as drawn.
Key:
[1] = biological target: T1, human TMEM16A (TMEM16Aabc variant) (Homo sapiens, UniProt Q5XXA6, DEL476-501); assay: Automated whole-cell patch clamp (Qpatch) TMEM16A potentiator assay in recombinant FRT cells; format: cell-based; conditions: for activation at 3.33 µM: percentage increase of baseline TMEM16A current, minimum n = 2, read-out: % Potentiation @ 3.33 uM Avg; for EC50: minimum n = 2
T1 sequence (Q5XXA6 with tags, fused parts or gaps isoform Q5XXA6-5 DEL539-564): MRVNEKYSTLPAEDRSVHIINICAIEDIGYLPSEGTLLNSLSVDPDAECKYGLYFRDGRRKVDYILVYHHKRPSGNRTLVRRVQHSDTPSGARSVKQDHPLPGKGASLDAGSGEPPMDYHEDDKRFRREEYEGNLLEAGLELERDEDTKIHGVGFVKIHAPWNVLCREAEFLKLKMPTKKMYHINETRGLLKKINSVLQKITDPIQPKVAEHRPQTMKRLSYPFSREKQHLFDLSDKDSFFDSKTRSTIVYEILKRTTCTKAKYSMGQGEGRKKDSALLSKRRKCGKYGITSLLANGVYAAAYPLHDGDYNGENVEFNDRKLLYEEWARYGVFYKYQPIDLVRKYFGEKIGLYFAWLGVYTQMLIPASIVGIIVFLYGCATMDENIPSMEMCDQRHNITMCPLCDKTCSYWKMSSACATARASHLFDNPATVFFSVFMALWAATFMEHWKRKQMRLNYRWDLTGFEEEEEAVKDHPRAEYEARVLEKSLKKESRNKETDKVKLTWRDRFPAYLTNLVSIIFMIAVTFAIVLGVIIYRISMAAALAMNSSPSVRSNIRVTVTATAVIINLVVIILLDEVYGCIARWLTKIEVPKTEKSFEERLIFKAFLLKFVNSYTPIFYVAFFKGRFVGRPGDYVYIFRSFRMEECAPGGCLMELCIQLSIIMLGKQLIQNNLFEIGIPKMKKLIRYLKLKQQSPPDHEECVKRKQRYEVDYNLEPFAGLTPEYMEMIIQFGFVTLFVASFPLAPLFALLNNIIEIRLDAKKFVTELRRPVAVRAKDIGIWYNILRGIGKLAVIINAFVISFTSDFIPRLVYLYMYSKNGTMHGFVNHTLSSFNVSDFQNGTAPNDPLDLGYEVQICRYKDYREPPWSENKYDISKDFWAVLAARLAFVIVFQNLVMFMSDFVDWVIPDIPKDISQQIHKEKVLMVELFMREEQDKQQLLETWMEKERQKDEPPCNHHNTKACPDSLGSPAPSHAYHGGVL
Method: Automated Whole-Cell Patch Clamp Assay to Detect TMEM16A Activity in Recombinant Cells
Fisher rat thyroid (FRT) cells stably expressing human TMEM16A (TMEM16Aabc variant; Dr Luis Galietta, Insituto Giannina, Italy) were cultured in T-75 flasks in Hams F-12 media with Coon's modification (Sigma) supplemented with 10% (v/v) foetal bovine serum, penicillin-streptomycin (10,000 U/mL/10000 μg/mL), G-418 (750 μg/mL), L-glutamine (2 mM) and sodium bicarbonate solution (7.5% v/v). At ˜90% confluence cells were harvested for experiments by detachment with a 2:1 (v/v) mixture of Detachin (BMS Biotechnology) and 0.25% (w/v) trypsin-EDTA.
FRT-TMEM16A cells were whole-cell patch clamped using an automated planar patch clamp system (Qpatch, Sophion). Briefly, once high resistance (GOhm) seals were established between the cells and the planar recording array the patch was ruptured using suction pulses to establish the whole-cell recording configuration of the patch clamp technique. The assay employed the following solutions (all reagents Sigma): Intracellular solution (mM): N-methyl-D-glucamine 130, CaCl2 18.2, MgCl2 1, HEPES 10, EGTA 10, BAPTA 20, Mg-ATP 2, pH 7.25, 325 mOsm with sucrose.
Extracellular solution (mM): N-methyl-D-glucamine 130, CaCl2 2, MgCl2 1, HEPES 10, pH 7.3, 320 mOsm with sucrose.
The intracellular solution buffers intracellular calcium at levels required to give ˜20% activation of the maximal TMEM16A mediated current (E020 for calcium ions). Cells were voltage clamped at a holding potential of −70mV and a combined voltage step (to +70 mV)/ramp (−90 my to +90 mV) was applied at 0.05 Hz. After a period of current stabilisation test compounds, solubilised in 100% (v/v) DMSO and subsequently diluted into extracellular solution, were applied to generate a cumulative concentration response curve. Each concentration of test compound was incubated for 5 minutes before addition of the next concentration. After the final concentration was tested a supramaximal concentration of either a known active positive modulator or the TMEM16A inhibitor, CaCCinhA01 (Del La Fuente et al, 2008) was added to define the upper and lower limits of the assay.
Compound activity was quantified by measuring the increase in current upon compound addition and expressing this as a percentage increase of baseline TMEM16A current level.
Peak TMEM16A current at +70 mV was plotted as a function of time over the assay period. Baseline current (IBL) was measured after a period of stabilisation. The increase in current for each compound addition was determined by taking the peak current during the incubation period and subtracting the current from the previous recording period and then expressing this as a percentage of the baseline current (% potentiation). For test compound concentration 1 in FIG. 1 this is:
For each additional concentration tested the increase in current was determined by subtracting the current from the previous incubation period and normalising the baseline value—for test concentration 2 in FIG. 1 this is:
The values for each test concentration were plotted as a cumulative function of concentration eg. for test concentration two this would be the sum of the peak changes measured during concentration one plus concentration two.

[2] = Kinetic solubility determination (high throughput); format: physicochemical; conditions: kinetic from dmso stock, sterile water, 5% DMSO, room temperature
Method: Test compounds (10 μL; 20 mM DMSO solution) were added to sterile water (190 μL) in triplicate and shaken at 300 rpm at room temperature. After 90 min. the test compounds were filtered by centrifuge (5 min. at 3000 rpm) to obtain the aqueous filtrate. Acetonitrile (20 μL) was dispensed into clean 96-well UV/VIS analysis plate and aqueous filtrate (80 μL) added and the plate analysed for test compound concentration using a Molecular Devices SPECTRAmax® plus microplate reader at the following wavelengths: (280, 300, 320, 340, 360, 800 nm). […] The diluted filtrate (80 μL) was then added to acetonitrile (20 μL) and the plate analysed. as previously.

[3] = Log D (pH7.4 shake flask); format: physicochemical; conditions: pH 7.4; 1-octanol/phosphate buffer shake flask; read-out: mLogD (pH 7.4)
Method: Phosphate buffer (1 M) was diluted to 20 mM with deionised water and adjusted to pH 7.4 with phosphoric acid or sodium hydroxide. 1-octanol and phosphate buffer (20 mM) were saturated overnight by tumbling. The two phases were separated using a separation funnel. 5 μL of 5 mM compound cassette was added to 495 μL of octanol-saturated buffer and 495 μL buffer saturated octanol in a 96-well plate (top concentration 50 μM). Plate was shaken for 1 h and centrifuged at 25° C. for 5 min. 200 μL of each phase was transferred to a separate plate. The octanol layer was sampled first to avoid cross contamination. 5 μL of the solutions were transferred to 495 μL of quench solution* (max concentration 0.5 μM). In addition, 40 μL of buffer solution was added to 360 μL of quench solvent (max concentration 5 μM). Samples were analysed by LC-MS/MS. Benchmarking against a calibration curve for each compound and with reference to the control compounds sulpride, diclofenac, chlorpromazine and tamoxifen. *Quench solution was a 1:3:1 mixture (v/v/v) of Acetonitrile containing 0.1% formic acid and imipramine/labetalol, 200 nM:Acetonitrile:Water.

Row | SMILES | activation at 3.33 µM [1] [%] | EC50 [1] [nM] | solubility kinetic at 90 min [2] [µg/mL] | logD [3]
1 | CC(C)(C)NC(=O)c1cc(NC(=O)Cc2cc(O)c(C(C)(C)C#N)cc2F)ccn1 [Example 2.2, N-tert-Butyl-4-[[2-[4-(1-cyano-1-methyl-ethyl)-2-fluoro-5-hydroxy-phenyl]acetyl]amino]pyridine-2-carboxamide] | 356 | 150 | 42 (≈ 102 µM) | > 4.2
2 | CC(C)(C#N)NC(=O)c1cc(NC(=O)Cc2cc(O)c(C(C)(C)CN3CCOCC3)cc2F)ccn1 [Example 2.5, N-(1-Cyano-1-methyl-ethyl)-4-[[2-[4-(1,1-dimethyl-2-morpholino-ethyl)-2-fluoro-5-hydroxy-phenyl]acetyl]amino]pyridine-2-carboxamide] | 112 |  | 327 (≈ 657 µM) | 2.7
3 | CC(C)(C#N)NC(=O)c1cc(NC(=O)Cc2cc(O)c(C(C)(O)C(F)(F)F)cc2F)ccn1 (centres unmarked) [Example 2.7, N-(1-Cyano-1-methyl-ethyl)-4-[[2-[2-fluoro-5-hydroxy-4-(2,2,2-trifluoro-1-hydroxy-1-methyl-ethyl)phenyl]acetyl]amino]pyridine-2-carboxamide] | 309 | 219 | 164 (≈ 350 µM) | 3
4 | CC(C)c1cc(C(C)(C)C)c(O)cc1CC(=O)Nc1ccnc(C(=O)NC(C)(C)C)c1 [Example 6, N-tert-Butyl-4-[[2-(4-tert-butyl-5-hydroxy-2-isopropyl-phenyl)acetyl]amino]pyridine-2-carboxamide] | 513 | 99 | 12 (≈ 28.2 µM) | > 4
5 | N#CC1(NC(=O)c2cc(NC(=O)Cc3cc(O)c(C4(C(F)(F)F)CC4)cc3F)ccn2)CC1 [Example 9, N-(1-Cyanocyclopropyl)-4-[[2-[2-fluoro-5-hydroxy-4-[1-(trifluoromethyl)cyclopropyl]phenyl]acetyl]amino]pyridine-2-carboxamide] | 378 | 88 | 72 (≈ 156 µM) | 3.5

More lines, now with the values ahead:

Row | activation at 3.33 µM [1] [%] | EC50 [1] [nM] | solubility kinetic at 90 min [2] [µg/mL] | logD [3] | SMILES
6 | 72.1 | 52 | 69 (≈ 149 µM) | 2.9 | CC(C)(C#N)c1cc(F)c(CC(=O)Nc2ccnc(C(=O)NC3(C(F)(F)F)CC3)c2)cc1O [Example 2.3, 4-[[2-[4-(1-Cyano-1-methyl-ethyl)-2-fluoro-5-hydroxy-phenyl]acetyl]amino]-N-[1-(trifluoromethyl)cyclopropyl]pyridine-2-carboxamide]
7 | 186 | 29 | 29 (≈ 69 µM) | 3.8 | [2H]c1c(O)c(C(C([2H])([2H])[2H])(C([2H])([2H])[2H])C([2H])([2H])[2H])cc(F)c1CC(=O)Nc1ccnc(C(=O)NC2(C#N)CC2)c1 [Example 4, N-(1-Cyanocyclopropyl)-4-[[2-[2-deuterio-6-fluoro-3-hydroxy-4-[2,2,2-trideuterio-1,1-bis(trideuteriomethyl)ethyl]phenyl]acetyl]amino]pyridine-2-carboxamide]
8 | 335 | 43 | 17 (≈ 40 µM) | > 4 | CC(C)(C#N)NC(=O)c1cc(NC(=O)Cc2cc(O)c(C3(C)CCC3)cc2F)ccn1 [Example 5, N-(1-Cyano-1-methyl-ethyl)-4-[[2-[2-fluoro-5-hydroxy-4-(1-methylcyclobutyl)phenyl]acetyl]amino]pyridine-2-carboxamide]
9 | 433 | 15 | 18 (≈ 41.2 µM) | > 4.2 | C=C(C)c1cc(F)c(CC(=O)Nc2ccnc(C(=O)NC3(C(F)(F)F)CC3)c2)cc1O [Example 7.1, 4-[[2-(2-Fluoro-5-hydroxy-4-isopropenyl-phenyl)acetyl]amino]-N-[1-(trifluoromethyl)cyclopropyl]pyridine-2-carboxamide]
10 | 240 | 46 | 37 (≈ 92.6 µM) | > 4 | CC(C)(C)NC(=O)c1cc(NC(=O)Cc2cc(O)c(C3(C)CC3)cc2F)ccn1 [Example 8, N-tert-Butyl-4-[[2-[2-fluoro-5-hydroxy-4-(1-methylcyclopropyl)phenyl]acetyl]amino]pyridine-2-carboxamide]
11 | 250 | 57 | 256 (≈ 545 µM) | 3.7 | CC(C)(C)c1cc(Cl)c(CC(=O)Nc2ccnc(C(=O)NC3(C(F)(F)F)CC3)c2)cc1O [Example 10.1, 4-[[2-(4-tert-Butyl-2-chloro-5-hydroxy-phenyl)acetyl]amino]-N-[1-(trifluoromethyl)cyclopropyl]pyridine-2-carboxamide]
12 | 252 | 52 | 11 (≈ 25.8 µM) | 3.7 | CC(C)(C)c1cc(Cl)c(CC(=O)Nc2ccnc(C(=O)NC3(C#N)CC3)c2)cc1O [Example 10.2, 4-[[2-(4-tert-Butyl-2-chloro-5-hydroxy-phenyl)acetyl]amino]-N-(1-cyanocyclopropyl)pyridine-2-carboxamide]

Reference: patent US20220235006A1, “PYRIDINE DERIVATIVES AS TMEM16A MODULATORS FOR USE IN THE TREATMENT OF RESPIRATORY CONDITIONS” (TMEM16A LIMITED, priority 2019, published 2022)
